Data reported in patent US10940139B2, “Compounds that interact with the Ras superfamily for the treatment of cancers, inflammatory diseases, rasopathies, and fibrotic disease” (Shy Therapeutics LLC, priority 2017, dated 2021).

target: KRas G12D/Q61H double mutant (Homo sapiens (Human), UniProt P01116, G12D/Q61H); assay: Ras GTP binding domain inhibition assay (labeled GTP); conditions: 20 μM compound; KRas G12D/Q61H double mutant; read-out: % Inhibition at 20 μM of K-Ras mutant and wild-type protein, KRas G12D Q61H
Sequence (P01116-2 other isoform, or with tags, fused parts or gaps G12D/Q61H): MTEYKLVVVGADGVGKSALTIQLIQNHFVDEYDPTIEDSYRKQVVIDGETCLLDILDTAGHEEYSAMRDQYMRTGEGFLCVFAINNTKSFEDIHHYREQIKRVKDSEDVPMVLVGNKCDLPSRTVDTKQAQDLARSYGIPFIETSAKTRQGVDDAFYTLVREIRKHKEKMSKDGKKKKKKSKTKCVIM
Procedure: Buffer-I: • 50 mM Tris, pH 7.5 • 150 mM NaCl (optional) • 1 mM MgCl2 • 1 mM DTT. • KRas G12D mutant protein was expressed as a His-tagged protein. Purified His-KRas G12D protein was diluted in buffer-I to a final concentration of 3-10 μg/ml. • 200 μl of the diluted His-KRas G12D protein was added to a nickel coated 96 well plate and incubated overnight at 4° C. • The next day, wells were washed 3× in 200 μl of Buffer-I. • Then 200 μl of Buffer-I were added to each well in the presence of 1% DMSO. • Tested compounds were added to the protein-coated wells at a concentration of 20 μM, and incubated for 3 hours at room temperature. While performing IC50 measurements a serial dilution of all tested concentrations was prepared.
Then 22 μl of Cy3-GTP or Cy5-GTP was added to each well. The labeled GTP was incubated for 45 min. at room temperature. • Following GTP incubation, wells were washed 3× in Buffer-I, and 200 μl of Buffer-I were added to each well. • Following washes, the amount of bound labeled-GTP was measured with an Eppendorf AF2200 plate reader.
By substituting KRas G12D mutant protein with KRas G12C mutant, KRas wild type, KRas Q61H mutant, KRas G12D/Q61H double mutant or KRas G12C/Q61H double mutant under the assay conditions described above, KRas G12C mutant KRas wild type, KRas Q61H mutant, KRas G12D/Q61H double mutant and KRas G12C/Q61H double mutant inhibition, respectively, were each determined.

Row | inhibition at 20 µM | SMILES
1 | 25 to 50% | C=CCN(Cc1ccc(Cl)s1)C(=O)COC(=O)c1cc(OC)ccc1O
2 | 1 to 25% | Cc1nc2ccccc2n1CCNC(=O)c1cc(S(=O)(=O)N(C)C)ccc1N1CCOCC1
3 | 25 to 50% | Clc1ccccc1SCCCSc1nnc(N2CCCC2)s1
4 | 1 to 25% | C#CCN(Cc1ccc(C)cc1)c1ccc(C#N)cc1[N+](=O)[O-]
5 | 25 to 50% | COc1ccc(N(CC(=O)N(c2ccccc2)C(C)C)S(=O)(=O)c2ccccc2C(F)(F)F)cc1
6 | 25 to 50% | CCOc1ccc(Nc2ccc([N+](=O)[O-])cc2S(=O)(=O)N(CC)CC)cc1
7 | 25 to 50% | Cc1ccc(OCCn2c(CN3CCCCC3)nc3ccccc32)cc1C
8 | 25 to 50% | CC(C)(CN1CCN(c2cccc(Cl)c2)CC1)NS(=O)(=O)c1ccccc1
9 | 1 to 25% | O=c1[nH]c(NCC(O)c2ccccc2)nc2ccccc12 (stereo not shown)
10 | 25 to 50% | COC(=O)c1cc(Cn2nc(C(=O)OC)c(Br)c2C2CC2)c(C)s1
11 | 25 to 50% | COc1ccc(Cl)cc1CN(c1ccccc1F)S(=O)(=O)C(C)C

same assay, conditions: 20 μM compound; read-out: % Inhibition at 20 μM KRas G12D Q61H

Row | inhibition at 20 µM | SMILES
12 | 1 to 25% | CN(Cc1nnc(-c2ccccc2)o1)Cc1ccccc1N1CCCC1
13 | 25 to 50% | CCN1CCN(c2nc(-c3ccccn3)nc3sc(-c4ccccc4)cc23)CC1
14 | 1 to 25% | Cc1ccccc1OCCn1c(CN2CCOCC2)nc2ccccc21
15 | 1 to 25% | COc1cccc(OCCn2c(CN3CCOCC3)nc3ccccc32)c1
16 | 1 to 25% | Nc1nc(O)c2scc(C(=O)N3CCc4ccccc4CC3)c2n1 [drawing 2671]
17 | 25 to 50% | Cc1nc(C2CCCN2c2nccc(C(F)(F)F)n2)no1 (stereo not shown)
18 | 25 to 50% | CC1CN(Cc2ccccc2)CCN1C(=O)c1csc2c(O)nc(-c3ccccn3)nc12 (stereo not shown)
19 | 25 to 50% | Nc1nc(O)c2scc(C(=O)N3CCN(c4ccncc4)CC3)c2n1
20 | 25 to 50% | Cc1[nH]c(-c2ccccn2)nc(=O)c1C
21 | 25 to 50% | Cc1noc(C)c1CN(C(=O)c1ccc(COc2ccc(F)cc2)o1)c1ccccc1
22 | 25 to 50% | Cc1cnc(-c2ccccn2)nc1NC(=O)COCc1ccc(C#N)cc1 [drawing 2815]
23 | 1 to 25% | Cc1cnc(-c2ccccn2)nc1NC(=O)Cc1ccc(C#N)cc1 [drawing 2814]
24 | 25 to 50% | CCN(CCNC(=O)c1cc(-c2cccnc2)on1)c1cccc(C)c1
25 | 25 to 50% | Nc1nc(-c2ccccn2)nn1C(=O)CN1CCS(=O)(=O)CC1
26 | 25 to 50% | COc1ccc(CC(=O)Nc2nc(-c3ccccn3)cs2)cc1OC
27 | 25 to 50% | CCn1c(SCc2csc(-c3cccc(OC)c3OC)n2)nc2cc(S(N)(=O)=O)ccc21
28 | 1 to 25% | CN(C)C(=O)CCN1CCOC(c2nc(-c3ccccc3)cs2)C1 (stereo not shown)

same assay, conditions: 20 μM; read-out: KRas G12D Q61H % Inh.

Row | inhibition at 20 µM | SMILES
29 | 51 to 75% | CN(CC(=O)Nc1nnc(-c2ccccn2)[nH]1)Cc1ccccc1 [drawing 2537]
30 | 51 to 75% | CC(C1CC1)N(CC(F)(F)F)C(=O)Cc1ccc(-c2ccccc2)cc1 (stereo not shown) [drawing 2630]
31 | 51 to 75% | N#Cc1ccccc1OCC(=O)Nc1nnc(-c2ccccn2)[nH]1 [drawing 2488]
32 | 51 to 75% | CC(Oc1ccc(C#N)cc1)C(=O)Nc1nnc(-c2ccccn2)[nH]1 (stereo not shown) [drawing 2525]
33 | 25 to 50% | Cn1ccc(C(=O)Nc2nnc(-c3ccccn3)[nH]2)cc1=O [drawing 2476]
34 | 25 to 50% | Cc1nc(-c2ccccn2)nc(O)c1CCC(=O)NCCc1cccs1 [drawing 2595]
35 | 51 to 75% | CCn1nnc2cc(C(=O)Nc3nnc(-c4ccccn4)[nH]3)ccc21 [drawing 2507]
36 | 51 to 75% | Cc1sc2[nH]c(-c3ccccn3)nc(=O)c2c1-c1ccccc1 [drawing 2586]
37 | 25 to 50% | COC(=O)C(C)CN(Cc1cc(Br)ccc1[N+](=O)[O-])C1CC1 (stereo not shown) [drawing 2629]

Row | SMILES | inhibition at 20 µM
38 | Cc1cccc(OCC(=O)Nc2nnc(-c3ccccn3)[nH]2)c1 [drawing 2555] | 51 to 75%

same assay, conditions: at 20 μM; read-out: KRas G12D Q61H % Inh.

Row | inhibition at 20 µM | SMILES
39 | 25 to 50% | O=C(c1csc2c(O)nc(-c3ccccn3)nc12)N1CCNC(c2ccc(Cl)cc2)C1 (stereo not shown) [drawing 3843]

same assay, conditions: read-out: KRas G12D Q61H IC50

Row | SMILES | IC50
40 | Cc1cccc(OCC(=O)Nc2nnc(-c3ccccn3)[nH]2)c1 [drawing 2555] | 5 to 10 µM
